From the SangsterLogP compilation

Assay: not given
Details: not given

| Structure (SMILES) | logP |
| --- | --- |
| O=c1ccnc2n1CCCC2 | 0.13 |
| O=c1ccnc2ccccn12 | 0.3 |

Continued, values first:

| logP | Structure (SMILES) |
| --- | --- |
| 0.37 | CC1CCCc2nccc(=O)n21 (stereo not given) |
| 1.58 | CCc1cnc2cccc(C)n2c1=O |

Assay: method code SF-AS, from DOI: 10.1016/s0021-9673(01)88398-9
Details: pH 5.0

| Structure (SMILES) | logD |
| --- | --- |
| Cc1cnc2cccc(C)n2c1=O | 1.27 |
| Cc1cccc2nccc(=O)n12 | 0.74 |

Second part, the compound after the results:

| logD | Structure (SMILES) |
| --- | --- |
| 2.22 | CCCc1c(C)nc2cccc(C)n2c1=O |
| 1.43 | CCc1c(C)nc2n(c1=O)C(C)CCC2 (stereo not given) |
| 0.67 | Cc1cc(=O)n2c(n1)CCCC2C (stereo not given) |
| 1.86 | CCc1c(C)nc2cccc(C)n2c1=O |
